Measured values taken from patent US9352015B2, “Antimicrobial peptides” (priority 2009, dated 2016).
Values after ≈ are worked out from the molar mass of the structure shown. “Also recorded” adds a separate entry of the source. Read-outs that look alike come from different tables or passages of the source. Where a SMILES comes first, the peptide text is derived from it.

Columns and labels:
[1] = system: Gram-negative bacteria; assay: MIC against Gram-negative bacteria (V681 analog studies); format: cell-based
Description: Minimal inhibitory concentrations (MICs) are determined using a standard microtiter dilution method, with 3 sets of determinations, in LB (Luria-Bertani) no-salt medium (10 g of tryptone and 5 g of yeast extract per liter). In some cases, Mueller Hinton (MH) medium or Brain Heart Infusion (BHI) medium is used.
Briefly, cells were grown overnight at 37° C. in LB and diluted in the same medium. Serial dilutions of the peptides are added to the microtiter plates in a volume of 100 μl followed by 10 μl of bacteria to give a final inoculum of 5×10^5 colony-forming units/ml. Plates are incubated at 37° C. for 24 hours and MICs determined as the lowest peptide concentration that inhibited growth. Alternatively, minimal inhibitory concentrations are determined using a standard microtiter dilution method in a Mueller-Hinton (MH) medium. Briefly, cells are grown overnight at 37° C. in MH broth and diluted in the same medium. In some cases, serial dilutions of the peptides are added to the microtiter plates in a volume of 100 μl followed by 10 μl of bacteria to give a final inoculum of 1×10^5 colony-forming units/ml. Plates are incubated at 37° C. for 24 hours and MICs are determined as the lowest peptide concentration that inhibited growth.

[2] = RP-HPLC temperature profiling (peptide self-association parameter PA); format: physicochemical; details: enantiomer pairs of V681 analogs, 5° C. to 80° C., relative to peptide C
Outline: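 Peptide retention was profiled by RP-HPLC at pH 2 from 5 °C to 80 °C in 3 °C increments, using a linear gradient of 0.5% acetonitrile/min. The monomeric random-coil control peptide C profile was subtracted. PA is the maximum change in retention time relative to control C; higher PA means greater self-association.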

[3] = 50% TFE in 0.05% TFA; cited from earlier work
[4] = system: human erythrocytes; assay: Hemolytic activity against human erythrocytes (HC50 / MHC, microtiter dilution); format: cell-based; details: V681 analog studies
[5] = Circular dichroism spectroscopy (helical structure); format: physicochemical
[6] = RP-HPLC retention as measure of overall peptide hydrophobicity; format: physicochemical; details: 80° C.
Description: Crude and purified peptides were analyzed on an Agilent 1100 series liquid chromatograph (Little Falls, Del.). Runs were performed on a Zorbax 300 SB-C8 column (150×2.1 mm I.D.; 5 μm particle size, 300 Å pore size) from Agilent Technologies using linear AB gradient (1% acetonitrile/min) and a flow rate of 0.25 ml/min, where eluant A was 0.2% aqueous TFA, pH 2 and eluant B was 0.2% TFA in acetonitrile.

[7] = system: human erythrocytes; assay: Hemolytic activity against human erythrocytes (HC50 / MHC, microtiter dilution); format: cell-based
Description: Hemoglobin release was determined spectrophotometrically at 570 nm. The hemolytic activity was determined as the peptide concentration that caused 50% hemolysis of erythrocytes after 18 h (HC50). […] HC50 was determined by a plot of peptide concentration versus percent lysis.

[8] = system: human erythrocytes; details: WO 2006/065977, cited from earlier work

CC[C@H](C)[C@H](NC(=O)[C@H](C)NC(=O)[C@H](CCCCN)NC(=O)[C@H](CC(C)C)NC(=O)[C@H](C)NC(=O)[C@@H](NC(=O)[C@H](Cc1c[nH]cn1)NC(=O)[C@H](CC(C)C)NC(=O)[C@@H](NC(=O)[C@@H](NC(=O)[C@H](CCCCN)NC(=O)[C@H](CC(C)C)NC(=O)[C@H](C)NC(=O)[C@H](CO)NC(=O)[C@H](CCCCN)NC(=O)[C@H](Cc1ccccc1)NC(=O)[C@@H](NC(=O)[C@H](CCCCN)NC(=O)[C@H](CC(C)C)NC(=O)[C@H](Cc1ccccc1)NC(=O)[C@H](CO)NC(=O)[C@H](CCCCN)NC(=O)[C@H](Cc1c[nH]c2ccccc12)NC(=O)[C@H](CCCCN)NC(C)=O)[C@@H](C)O)[C@@H](C)O)C(C)C)[C@@H](C)O)C(=O)N[C@@H](CO)C(=O)N[C@@H](CO)C(N)=O [NLL] (Ac-KWKSFLKTFKSALKTVLHTALKAISS-NH2)
MIC against Gram-negative bacteria [1]: 12.7 µg/mL (≈ 4.27 µM)

CC[C@H](C)[C@H](NC(=O)[C@H](C)NC(=O)[C@H](CCCCN)NC(=O)[C@H](CC(C)C)NC(=O)[C@H](C)NC(=O)[C@@H](NC(=O)[C@H](Cc1c[nH]cn1)NC(=O)[C@H](CC(C)C)NC(=O)[C@@H](NC(=O)[C@@H](NC(=O)[C@H](CCCCN)NC(=O)[C@@H](NC(=O)[C@H](C)NC(=O)[C@H](CO)NC(=O)[C@H](CCCCN)NC(=O)[C@H](Cc1ccccc1)NC(=O)[C@@H](NC(=O)[C@H](CCCCN)NC(=O)[C@H](CC(C)C)NC(=O)[C@H](Cc1ccccc1)NC(=O)[C@H](CO)NC(=O)[C@H](CCCCN)NC(=O)[C@H](Cc1c[nH]c2ccccc12)NC(=O)[C@H](CCCCN)NC(C)=O)[C@@H](C)O)C(C)C)[C@@H](C)O)C(C)C)[C@@H](C)O)C(=O)N[C@@H](CO)C(=O)N[C@@H](CO)C(N)=O [Peptide V681] (Ac-KWKSFLKTFKSAVKTVLHTALKAISS-NH2)
PA (peptide self-association parameter) [2]: 7.2
Transition temperature Tm (50% of α-helical structure denatured) [3]: 79.3 °C
Hemolytic activity, minimal hemolytic concentration (MHC) [4]: 15.6 µg/mL
[θ]222 molar ellipticity ([5]; 50% TFE): −27,300
α-helical content ([5]; 50% TFE): 94%
α-helical content ([5]; benign conditions): 45%
[θ]222 molar ellipticity ([5]; benign conditions (100 mM KCl, 50 mM aq. PO4, pH 7)): −12,900
Change in hydrophobicity (retention time) relative to PVL ([6]; polar face substitution): -0.35 min

CC[C@H](C)[C@H](NC(=O)[C@H](C)NC(=O)[C@H](CCCCN)NC(=O)[C@H](CC(C)C)NC(=O)[C@H](C)NC(=O)[C@@H](NC(=O)[C@H](Cc1cnc[nH]1)NC(=O)[C@H](CC(C)C)NC(=O)[C@@H](NC(=O)[C@@H](NC(=O)[C@H](CCCCN)NC(=O)[C@H](CCCCN)NC(=O)[C@H](C)NC(=O)[C@H](CO)NC(=O)[C@H](CCCCN)NC(=O)[C@H](Cc1ccccc1)NC(=O)[C@@H](NC(=O)[C@H](CCCCN)NC(=O)[C@H](CC(C)C)NC(=O)[C@H](Cc1ccccc1)NC(=O)[C@H](CO)NC(=O)[C@H](CCCCN)NC(=O)[C@H](Cc1c[nH]c2ccccc12)NC(=O)[C@H](CCCCN)NC(C)=O)[C@@H](C)O)[C@@H](C)O)C(C)C)[C@@H](C)O)C(=O)N[C@@H](CO)C(=O)N[C@@H](CO)C(N)=O [NKL]
MIC against Gram-negative bacteria [1]: 3.1 µg/mL (≈ 1.04 µM)
PA (peptide self-association parameter) [2]: 2.1
Fold decrease in hemolytic activity compared to V681 [7]: > 32 fold
Hemolytic activity, minimal hemolytic concentration (MHC) [4]: undetectable level; also recorded: non-hemolytic; also recorded: no detectable hemolytic activity; also recorded: no measurable activity
Change in hydrophobicity (retention time) relative to NVL (V681) ([6]; non-polar face substitution): -12.61 min

CC[C@H](C)[C@H](NC(=O)[C@H](C)NC(=O)[C@H](CCCCN)NC(=O)[C@H](CC(C)C)NC(=O)[C@H](C)NC(=O)[C@@H](NC(=O)[C@H](Cc1c[nH]cn1)NC(=O)[C@H](CC(C)C)NC(=O)[C@@H](NC(=O)[C@@H](NC(=O)[C@H](CCCCN)NC(=O)[C@@H](C)NC(=O)[C@H](C)NC(=O)[C@H](CO)NC(=O)[C@H](CCCCN)NC(=O)[C@H](Cc1ccccc1)NC(=O)[C@@H](NC(=O)[C@H](CCCCN)NC(=O)[C@H](CC(C)C)NC(=O)[C@H](Cc1ccccc1)NC(=O)[C@H](CO)NC(=O)[C@H](CCCCN)NC(=O)[C@H](Cc1c[nH]c2ccccc12)NC(=O)[C@H](CCCCN)NC(C)=O)[C@@H](C)O)[C@@H](C)O)C(C)C)[C@@H](C)O)C(=O)N[C@@H](CO)C(=O)N[C@@H](CO)C(N)=O [NAD] (HELM PEPTIDE1{[ac].K.W.K.S.F.L.K.T.F.K.S.A.[dA].K.T.V.L.H.T.A.L.K.A.I.S.S.[am]}$$$$V2.0)
PA (peptide self-association parameter) [2]: 4.1
Hemolytic activity ([8]; after 12 hours): 250 µg/mL
Hemolytic activity ([8]; after 18 hours): 31.3 µg/mL
